Experimental data reported in PMC2628638, “Catalytic inhibition of topoisomerase II by a novel rationally designed ATP-competitive purine analogue” (BMC Chemical Biology, 2009).

Key:
Type in all cases: cell-based
[1] = system: HeLa T-Rex cells; experiment: Gamma-H2AX In-Cell Western assay (doxorubicin-induced DNA damage); conditions: 30 minutes pretreatment, then 1 μM doxorubicin for 2 hours; read-out: IC50, suppression of doxorubicin-induced γH2AX signal
Method: In-Cell Western analysis was carried out as follows. HeLa T-Rex cells were seeded at the cell density of 15 × 10^3 cells per well in black 96-well plates (Greiner Bio-one Vacuette, St Gallen, Switzerland). The day post-seeding, cells were pretreated with increasing concentrations of either ICRF-193, QAP 1 or vehicle (DMSO) for 30 minutes followed by a 2 hours treatment with 1 μM of doxorubicin, or were only treated with the same concentrations of ICRF-193, QAP 1 or vehicle (DMSO) for 2 hours. Treatments were done in triplicate. […] Finally, cells were washed 4 times with 50 μl per well of PBS containing 0.1% Tween-20 for 3 minutes, liquid was removed and plates were kept at 4°C until reading. γH2AX signals were read using the LI-COR Odyssey Infrared Imager with the Odyssey v1.1 software using the 800 nm channel. Blank values correspond to non-specific γH2AX signal detected in wells without primary antibody staining. […] The resulting values for each sample were normalized to the DNA quantity by measuring the corresponding TO-PRO-3 iodide signals. The TO-PRO-3 iodine signals were detected by using the 700 nm channel. The percentage of γH2AX signal was determined for each concentration of ICRF193 and QAP 1 with or without doxorubicin treatment by setting the value for the treatment with vehicle and 1 μM doxorubicin to 100%. […]

[2] = system: HCC1937 BRCA1 mutant and HCC1937 BRCA1 reconstituted cells; experiment: Clonogenic growth assay (WST-1, colony counting); conditions: continuous treatment for 9 days, WST-1 and colony numbers
Method: HCC1937 BRCA1 mutant and HCC1937 BRCA1 reconstituted breast ductal carcinoma cells were cultured in RPMI-1640 medium supplemented with 10% fetal calf serum, 2 mM L-glutamine, 1 mM sodium pyruvate, 4.5 g/l glucose and 1% (v/v) penicillin/streptomycin. Status of BRCA1 was corroborated by immunoprecipitation using 50 μg nuclear extracts and 1 μg mouse monoclonal antibody MS110 (ab16780, Abcam Inc., Cambridge, MA), which is directed towards the amino-terminus of the protein. Blots were probed with BRCA1 carboxy-terminal specific mouse monoclonal antibody D9 (sc-6954, Santa Cruz Biotechnologies, Santa Cruz, CA) and, following stripping, re-probed with antibody MS110. For assays, 5000 cells in 3 ml medium were seeded per well of 6 well plates in duplicates. The day after, vehicle (DMSO) or compounds were added. After one week medium was exchanged and vehicle or compounds were re-added for an additional two days. To assess proliferation the medium in each well was replaced with 1 ml medium containing 100 μl WST-1 reagent and incubation for 20 minutes at 37°C. Of each sample 110 μl supernatant were transferred into a 96 well plate and the OD was read at 450 nm (filter at 630 nm) on a SpectraMax Plus microtiter plate reader using SoftMax Pro software (Molecular Devices). For background correction, the blank value consisted of 100 μl medium containing 10 μl WST-1. Thereafter, colonies were stained by removing medium, washing cells once with PBS and incubation with 1 ml crystal violet solution for 30 minutes at room temperature. Cells were washed twice with PBS and colonies were counted using an Artec Counter (Model 880, Artec, Dyntatech Laboratories Inc.) with diameter cut-off set to 0.2 mm. Data were expressed as growth or colony numbers relative to vehicle control treatments (100%).

[3] = system: HL-60 cells; experiment: Gamma-H2AX Western blot (doxorubicin-induced DNA damage); conditions: both drugs 5 μM, 30 minutes pretreatment, doxorubicin 2 hours
Method: Histone extracts of HL-60 or HeLa T-Rex cells for Western blot analysis were prepared as follows: Following treatments, medium was removed and cells were collected/washed with PBS. Cells were centrifuged for 5 minutes at 1500 rpm and 4°C and the cell pellet was resuspended in 300 μl of ice-cold hypotonic buffer (see above). Cells were transferred in a 1.5 ml Eppendorf tube and incubated for 15 minutes on ice. Thereafter, NP-40 was added to the cells to a final concentration of 0.6% (v/v) and cells were disrupted by pumping 10–15 times through a 1 ml syringe connected to a 23-gauge needle. The extract was centrifuged for 10 minutes at 8000 rpm and 4°C. The supernatant (cytoplasmic fraction) was removed and the nuclear pellet was washed once with 500 μl of ice-cold hypotonic buffer for 4 minutes at 8000 rpm. Nuclear proteins were extracted by addition of 22 μl sample buffer and boiling for 3 minutes. Samples were resolved by 15% SDS-PAGE following transfer to PVDF membrane. After blocking, membranes were incubated either with anti-γH2AX (clone JBW301, 05–636, Upstate, Charlottesville, VA, diluted 1:1000 in PBS containing 0.1% Tween 20 and 5% milk) or histone H3 (catalog number 9715, Cell Signaling Technologies Inc., Beverly, MA, diluted 1:1000 in TBS containing 0.1% Tween 20 and 5% milk) antibodies overnight at 4°C.

[4] = system: HL-60 cells; experiment: Proliferation assay over 72 hours; conditions: read-out: half-maximal growth inhibitory concentration (GI50)
[5] = system: HL-60 cells; experiment: Chromosome segregation assay (chromosome spreads)
Method: HL-60 cells were treated overnight for 16 hours with 2 μg/ml aphidicolin (Sigma-Aldrich corporation, St. Louis, MO) and released by washing twice PBS and resuspending into fresh medium. After 6 hours release the cells were treated with 1 mM caffeine (Lancaster Synthesis, Heysham, Lancashire, UK) and with catalytic topoisomerase II inhibitor or vehicle for 2 hours. Cells were washed once with PBS and incubated with 56 mM KCl hypotonic solution for 30 minutes. Cells were pelleted and carefully resuspended in Carnoy's fixative. Cells were pelleted as above, supernatant was removed and cells were resuspended again in 2 ml fixative. Chromosome spreads were prepared by dropping 50 μl cell suspension onto microscopy slides. The slides were allowed to dry and then stained for 10 seconds in Hoechst 33342 dye (Molecular Probes, Eugene, Oregon, prepared 1:1000 in PBS from 10 mg/ml stock). After drying, mounting media (Vectashield®, Vector Laboratories, Burlingame, CA) and a cover slip were added. Samples were observed using an immersion oil lens (100 ×, Nikon, Plan Apo VC) by fluorescence microscopy (Nikon Eclipse, E600) in the DAPI channel. Images were acquired using analySIS® software (Soft Imaging System GmbH, Münster, Germany). Representative images were converted to grayscale, inverted and contrast adjusted with Adobe Photoshop. Mitotic cells were categorized as described.

ICRF-193 [reference compound]
IC50 [1]: ~200 nM
sensitivity of BRCA1 mutant versus BRCA1 reconstituted HCC1937 cells [2]: somewhat more sensitive
effect of pretreatment on doxorubicin-induced γH2AX (Western blot) [3]: suppressed
GI50 [4]: 250 nM
chromosome segregation at mitosis ([5]; 400 nM with 1 mM caffeine for 2 hours after 6 hours release): anaphases looked abnormal
chromosome segregation at mitosis ([5]; 1 μM with caffeine for 2 hours after 6 hours release from aphidicolin): no normal anaphases or telophases could be observed
